These results are taken from patent US20260306490A1, “PIM1 INHIBITOR FOR TREATING MYELOPROLIFERATIVE NEOPLASMS” (Sumitomo Pharma America, Inc., priority 2022, published 2026).

Experiment [1] relates to human erythroid progenitors (CFU-E, BFU-E). The experiment is described as follows: Colony forming cell assay, human erythroid progenitor (CFU-E, BFU-E) proliferation. The format is cell-based. The conditions noted are these: 336 h, single agent, 14 days, CFU-E and BFU-E. On the procedure:
Clonogenic progenitors of human erythroid (CFU-E, BFU-E), granulocyte-monocyte (CFU-GM), and multipotential (CFU-GEMM) lineages were assessed in a semi-solid methylcellulose-based media formulation containing rhIL-3 (10 ng/mL), rhGM-SCF (10 ng/mL), rhSCF (50 ng/mL), and Epo (3 U/mL).
(§1) In addition, 5-FU was evaluated at 1.0, 0.1 and 0.01 μg/mL as a positive control for toxicity.
(§2) Normal human bone marrow light density cells (lot #0210901), derived from normal bone marrow, (Lonza, Maryland) and qualified at ReachBio, were stored at −152° C. until required for the assay. On the day of the experiment, the cells were thawed rapidly, diluted in 10 mL of Iscove's modified Dulbecco's medium containing 10% fetal bovine serum (IMDM+10% FBS) and washed by centrifugation (approximately 1500 r.p.m. for 10 minutes at room temperature). The supernatant was discarded and the cell pellets were resuspended in a known volume of IMDM+10% FBS. A cell count (3% glacial acetic acid) and viability assessment (trypan blue exclusion test) was performed for the bone marrow sample.
Clonogenic progenitors of human megakaryocyte (CFU-Mk) were assessed in a collagen-based media formulation containing rhIL-3 (10 ng/mL), rhIL-6 (10 ng/mL), and Tpo (50 ng/mL). Clonogenic progenitors of the human erythroid (CFU-E and BFU-E), myeloid (CFU-GM), and megakaryocyte (CFU-Mk) lineages were set up in the media formulations described above. Individually, the test compounds were added to the medium to give the final desired concentrations (10, 3.33, 1, 0.333, 0.1, 0.0333, 0.01 and 0.00333 μM). […]
Human myeloid and erythroid progenitor assays were initiated at 1.2×10^4 cells per culture (lot #0210921) and the human megakaryocyte assays were initiated at 1.2×10^5 cells per culture (lot #0210921). Following 14 days in culture, erythroid and myeloid colonies were assessed microscopically in situ and scored by trained personnel. […] The colonies were assessed microscopically and scored by trained personnel and divided into the following categories based on size: CFU-Mk (3-20), CFU-Mk (21-49), and CFU-Mk (≥50).
Statistical analysis: The mean±standard deviation of three replicate cultures was calculated for both erythroid and myeloid progenitors. […]
Erythroid (CFU-E and BFU-E) and myeloid (CFU-GM) colony enumeration was performed by trained personnel. In addition, the distribution of colony types as well as general colony and cellular morphology was analyzed. The variance in colony number detected in replicate cultures was representative of the historical coefficient of variation for colony enumeration using these types of assays. The number and distribution of colonies detected in the solvent control (0.1% DMSO for single agents) was no different from the standard control (containing no compound and no DMSO). […]

Experiment [2] has as its system human megakaryocyte progenitors (CFU-Mk). The experiment is described as follows: Colony forming cell assay, human megakaryocyte progenitor (CFU-Mk) proliferation. The format is cell-based. The conditions noted are these: Homo sapiens; single agent; read-out: IC50, total CFU-Mk (megakaryocyte progenitor proliferation). On the procedure: as §1, §2
Clonogenic progenitors of human megakaryocyte (CFU-Mk) were assessed in a collagen-based media formulation containing rhIL-3 (10 ng/mL), rhIL-6 (10 ng/mL), and Tpo (50 ng/mL). Clonogenic progenitors of the human erythroid (CFU-E and BFU-E), myeloid (CFU-GM), and megakaryocyte (CFU-Mk) lineages were set up in the media formulations described above. Individually, the test compounds were added to the medium to give the final desired concentrations (10, 3.33, 1, 0.333, 0.1, 0.0333, 0.01 and 0.00333 μM). […] Solvent control cultures (containing no compound but 0.1% DMSO) as well as standard controls (containing no compound and no DMSO) were also initiated. Once introduced into the matrices, the tubes were vortexed to ensure an equal distribution throughout.
Human myeloid and erythroid progenitor assays were initiated at 1.2×10^4 cells per culture (lot #0210921) and the human megakaryocyte assays were initiated at 1.2×10^5 cells per culture (lot #0210921). Following 14 days in culture, erythroid and myeloid colonies were assessed microscopically in situ and scored by trained personnel. The colonies were divided into the following categories based on size and morphology: CFU-E, BFU-E, CFU-GM, and CFU-GEMM. The human megakaryocyte cultures were transferred from the 35 mm dishes to labeled glass slides, fixed with methanol/acetone fixative, and then stained with anti-human CD41 antibody and an alkaline phosphate detection system according to manufacturers' instructions. The colonies were assessed microscopically and scored by trained personnel and divided into the following categories based on size: CFU-Mk (3-20), CFU-Mk (21-49), and CFU-Mk (≥50).
Statistical analysis: The mean±standard deviation of three replicate cultures was calculated for both erythroid and myeloid progenitors. Two-tailed standard t-tests were performed to assess if there was a difference in the number of colonies generated between solvent control and treated cultures. Due to the potential subjectivity of colony enumeration, a p value of less than 0.01 is deemed significant. To calculate the concentration of 50% inhibition of colony growth (IC50) for each compound, a dose response curve was generated plotting the log of the compound concentration versus the percentage of control colony growth using GraphPad Prism 9 software.
Other than the test compounds being combined, the only change from the method in Example 1 was a 0.2% DMSO solvent control instead of 0.1% DMSO. The results are provided in FIGS. 2A-4C (FIGS. 2A-2C are human megakaryocytes (CFU-MK), FIGS. 3A-3C are human erythroid (CFU-E, BFU-E), and FIGS. 4A-4C are human granulocyte-monocyte (CFU-GM).

Turning to `CC(C)(O)[C@H]1CC[C@H](Nc2ccc3ncc(-c4cccc(C(F)(F)F)c4)n3n2)CC1` [Compound (1)], the values for the IC50 in experiment [1] and in experiment [2] were 4250 nM and 1560 nM, respectively.
